We go through 2 compounds from patent publication US11226337B2, “Chemoproteomic profiling of protein electrophilic and oxidative post-translational modifications” (Zenagem, LLC, priority 2017, dated 2022).

Holding throughout (experiment): SILAC RP-ABPP
Type in all cases: cell-based

Assay [1] concerns the target T1, ALDH1B1 Aldehyde dehydrogenase X (P30837) (Homo sapiens, UniProt P30837).
T1 construct: shared by both the endogenous and recombinant forms of these proteins; endogenous in cells; host or cells: HEK293T and MDA-MB-231
T1 sequence (P30837 18-517): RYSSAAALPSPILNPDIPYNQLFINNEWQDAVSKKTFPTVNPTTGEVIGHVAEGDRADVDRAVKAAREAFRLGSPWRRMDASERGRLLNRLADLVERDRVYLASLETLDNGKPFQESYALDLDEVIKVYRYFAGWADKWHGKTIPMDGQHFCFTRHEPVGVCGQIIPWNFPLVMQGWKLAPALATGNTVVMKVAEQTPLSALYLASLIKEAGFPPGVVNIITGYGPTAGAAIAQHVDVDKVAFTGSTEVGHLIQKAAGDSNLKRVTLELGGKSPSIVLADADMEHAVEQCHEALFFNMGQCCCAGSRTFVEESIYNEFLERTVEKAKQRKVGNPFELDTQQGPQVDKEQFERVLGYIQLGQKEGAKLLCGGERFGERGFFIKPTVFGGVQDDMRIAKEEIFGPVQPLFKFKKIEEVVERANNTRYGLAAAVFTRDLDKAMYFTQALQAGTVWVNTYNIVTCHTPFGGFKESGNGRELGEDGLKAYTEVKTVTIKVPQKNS
The conditions noted are these: SILAC H/L, HEK293T.

The target of assay [2] is T2, CTSB Cathepsin B (P07858) (Homo sapiens, UniProt P07858).
T2 construct: In Situ Labelling of Cells with Hydrazine Probes for MS Experiments; endogenous in cells; host or cells: HEK293T and MDA-MB-231
Conditions: SILAC H/L, MDA-MB-231.

In assay [3] the target is T3, SCPEP1 Retinoidinducible serine (Q9HB40) (Homo sapiens, UniProt Q9HB40).
T3 construct: In Situ Labelling of Cells with Hydrazine Probes for MS Experiments; endogenous in cells; host or cells: HEK293T and MDA-MB-231
T3 sequence (Q9HB40 27-452): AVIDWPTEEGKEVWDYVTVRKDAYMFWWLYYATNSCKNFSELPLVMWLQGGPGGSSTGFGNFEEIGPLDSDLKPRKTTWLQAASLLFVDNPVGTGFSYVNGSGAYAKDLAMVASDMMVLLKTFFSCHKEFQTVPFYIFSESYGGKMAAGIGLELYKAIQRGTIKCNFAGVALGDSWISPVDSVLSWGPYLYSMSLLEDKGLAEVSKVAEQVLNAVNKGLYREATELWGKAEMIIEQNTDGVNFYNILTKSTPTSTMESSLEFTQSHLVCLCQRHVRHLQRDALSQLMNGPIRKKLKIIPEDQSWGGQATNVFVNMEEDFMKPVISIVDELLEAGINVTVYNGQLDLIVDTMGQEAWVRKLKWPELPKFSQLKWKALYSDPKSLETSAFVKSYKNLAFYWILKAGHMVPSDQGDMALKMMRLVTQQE
Conditions: SILAC H/L.

Turning to `C#CCNN.Cl` [probe 1, prop-2-yn-1-ylhydrazine hydrochloride], the enrichment ratioavg in assay [1] (probe 1 3 mM 0.5 h vs probe 3) is on record as 6; in assay [2] (probe 1 3 mM 0.5 h vs probe 3), 9; in assay [3] (probe 1 3 mM 0.5 h vs probe 3, HEK293T), 5. Also, the competition ratioavg in assay [1] (probe 1 vs probe 1+10x probe 3) was determined as 3; in assay [2] (probe 1 vs probe 1+10x probe 3), 3; in assay [3] (probe 1 vs probe 1+10x probe 3, HEK293T) it was 2.
For the compound `C#CCCNC(=O)c1ccc(NN)cc1.Cl` [probe 2, N-(but-3-yn-1-yl)-4-hydrazinylbenzamide hydrochloride], the enrichment ratioavg in assay [1] (probe 2 1 mM 0.5 h vs probe 4) is recorded as 11; in assay [2] (probe 2 1 mM 0.5 h vs probe 4) it was 14; in assay [3] (probe 2 1 mM 0.5 h vs probe 4, MDA-MB-231) it was 19. For the same compound, the competition ratioavg in assay [1] (probe 2 vs probe 2+10x probe 4) was found to be 5; in assay [2] (probe 2 vs probe 2+10x probe 4), 5; in assay [3] (probe 2 vs probe 2+10x probe 4, MDA-MB-231) it was 4.
